Laboratory results reported in patent US11912723B2, “KRAS modulators and uses thereof” (Quanta Therapeutics, Inc., priority 2022, dated 2024).

How the values were obtained:
KRAS G12D/RAF1 = biological target: T1, KRAS G12D/RAF1 (Homo sapiens, UniProt P01116, G12D); assay: Protein-protein interaction (PPI) HTRF assay KRAS G12D/RAF1; format: binding; conditions: KRAS G12D/RAF1, GppNHp-loaded KRAS; 30 minutes pre-incubation
T1 construct: KRAS (1-169) proteins were expressed in E. coli at 18° C; His6-MBP (N, cleaved yes); made in house; host or cells: E. coli
T1 sequence (P01116 1-169 isoform P01116-2 G12D): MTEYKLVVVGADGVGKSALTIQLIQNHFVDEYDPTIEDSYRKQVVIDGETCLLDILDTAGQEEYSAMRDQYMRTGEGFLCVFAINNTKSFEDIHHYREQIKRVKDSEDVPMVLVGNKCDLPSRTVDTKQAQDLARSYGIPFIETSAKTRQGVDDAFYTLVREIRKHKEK
Experimental: Biotinylated KRAS wt and KRAS G12DNV proteins were expressed and purified in conditions similar to those previously reported (Tran, et al., 2021) (Zhang, et al., 2020). Briefly, KRAS (1-169) proteins were expressed in E. coli at 18° C. with an upstream TEV cleavage site (ENLFYQS) followed an Avi tag sequence ([…]). KIRAS expression constructs contained both a His6 and maltose-binding protein (MBP) tags at the N-terminus for Ni-NTA column purification prior to overnight TEV cleavage and MBP column purification. The avi-tagged NRAS expression construct contained both a His6 tag and SUMO cleavage sige at the N-terminus for Ni-NTA column purification followed by His-ULP1 digestion overnight. All avi-tagged RAS proteins were dialyzed into buffer containing ATP, biotin, and BirA followed by purification over a second Ni-NTA column and then run over a size exclusion HiLoad™ 26/600 Superdex™ column in 20 mM HEPES, pH 7.5, 300 mM NaCl, 5 mM MgCl2, and 1 mM TCEP. Fractions containing the protein of interest were pooled, concentrated, and confirmed by intact mass spectrometry. To prepare ‘GTP’ loaded KRAS and NRAS, biotinylated KRAS or NRAS was nucleotide exchanged from GDP-bound protein to GppNHp-bound (Jena Biosciences, NU-401-50) protein in the presence of alkaline phosphatase and excess GppNHp as previously described and the resulting nucleotide content was confirmed by HPLC reverse phase analytical chromatography (Donohue, et al., 2019) (Tran, et al., 2021).
His-tagged RAF1 (52-131) was similarly expressed in E. coli at 18° C. overnight with an upstream TEV cleavage site. His-tagged RAF1 expression construct contained both a His6 and MBP tags at the N-terminus for Ni-NTA column purification followed by MBP-tagged TEV digestion overnight. RAF1 protein samples were further purified over a MBP column followed by a Ni-NTA column and a second MBP column. The fractions containing the protein of interest were pooled, concentrated, and further purified over a HiLoad™ 16/600 Superdex™ 75 pg size exclusion column into 20 mM HEPES, pH8.0, 200 mM NaCl, 5 mM TCEP.
When RAS proteins are in the active GTP-bound conformation, they bind the effector protein RAF1 at the N-terminus Ras-binding domain (RBD, residues 52-131) (Tran, et al., 2021). Homogenous time resolved fluorescence (HTRF) was used to monitor the interaction between wt or mutant KRAS and RAF1 or wt NRAS and RAFT. Compounds were assayed in the presence of KRAS G12D/V and RAF1 versus wt KRAS to assess activity against mutant and w.t. KRAS. Similarly, compounds were then assayed in the presence of w.t. NRAS and RAF1 to assess RAS isoform selectivity. In all assay formats, His-tagged RAF1 protein was incubated with the HTRF donor, anti-6His Tb Cryptate gold (Cisbio 61DB10RDF), and biotinylated RAS proteins were incubated with the HTRF acceptor, streptavidin-d2 (CisBio 610SADLA). The intensity of the fluorescence signal emitted is proportional to binding between the two proteins. The donor solution was prepared by mixing 16 nM His-tagged RAF1 in protein dilution buffer with 1:100 anti-6His Tb cryptate in PPI-Terbium detection buffer. 16 nM biotinylated RAS protein was diluted into protein dilution buffer (50 mM Tris-HCl pH 7.5, 150 mM NaCl, 0.1 mM MgCl2, 1 mM TCEP, 0.005% Tween20) and mixed with 1:2000 Streptavidin-d2 diluted in PPI-Terbium detection buffer (CisBio 61DB10RDF). 50× compound in DMSO was mixed with 16 nM KRAS-acceptor solution and incubated for 30 minutes at room temperature. After compound pre-incubation with KRAS, the RAF1 donor solution was added to the KRAS-acceptor solution and incubated for 1 hour at room temperature. The fluorescence signal emitted was monitored at 665 nm and 615 nm using an Envision multimode plate reader. The HTRF ratio (665/615) was calculated and normalized to 0% inhibition in the absence of compound and 100% inhibition in the presence of untagged RAF1 protein. […]

[1] = biological target: T2, GST-tagged KRAS G12D (2-169) (Homo sapiens, UniProt P01116, G12D); assay: Nucleotide exchange assay (NEA), HTRF of SOS-mediated GTP-DY-647P1 binding; format: biochemical; conditions: 5 nM GST-KRAS G12D, 20 nM SOScat, 150 nM GTP; compound 1 h at RT
T2 construct: GST-tagged KRAS^G12D (2-169, Reaction Biology, MSC-11-539); purchased Reaction Biology MSC-11-539 (KRAS G12D); MSC-11-502 (SOS1cat)
T2 sequence (P01116 2-169 isoform P01116-2 G12D): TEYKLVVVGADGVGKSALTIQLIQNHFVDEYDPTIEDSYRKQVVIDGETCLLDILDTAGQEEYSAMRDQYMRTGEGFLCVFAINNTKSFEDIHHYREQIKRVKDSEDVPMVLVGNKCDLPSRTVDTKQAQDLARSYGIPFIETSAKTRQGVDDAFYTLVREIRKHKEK
Description: This activity is tightly regulated by GTPase activating proteins (GAPs) and guanine nucleotide exchange factors (GEFs). GEFs, such as SOS1/2, activate Ras proteins by exchanging GDP for GTP, thus returning Ras to its active conformation (Simanshu, Nissley, & McCormick, 2017). […] Homogenous time resolved fluorescence (HTRF) was used to detect SOS-mediated binding of a fluorescent GTP analog, GTP-DY-647P1 (Jena Biosciences NU-820-647P1) to GST-tagged KRAS^G12D (2-169, Reaction Biology, MSC-11-539).
GST-tagged KRAS^G12D (2-169) and anti-GST MAb Tb Cryptate Gold (CisBio 61GSTTLB) were diluted into assay buffer (20 mM HEPES, pH 7.3, 150 mM NaCl, 5 mM MgCl2, 0.05% BSA 0.0025% NP40, 1 mM DTT) to prepare a 2.5× donor solution. 5× compound was added to the protein mixture and incubated for 1 h at RT. 2.5× acceptor solution containing SOS1cat (564-1049, Reaction Biology MSC-11-502) and GTP-DY-647P1 were then added to the donor KRAS mixture such that the final concentration of the reaction contained 5 nM GST-tagged KRAS^G12D (2-169), 20 nM SOScat, and 150 nM GTP. The reaction was monitored using at RT with the Envision multimode plate reader (Ex/Em 337/665, […]) up to 90 minutes at 5 minute intervals. Data was blanked to reactions without SOS1 and % inhibition was calculated such that DMSO only=0% and blank=100%. Curve fitting was done using a 4 parameter fit. NEA KRAS G12D ID50 (uM) values of selected compounds are depicted in Table 2 with compounds having a value<0.01 uM as ++++; >0.01 uM to 0.1 uM as +++; >0.1 uM to 1 uM as ++; >1 uM to 20 uM as +; and >20 uM as NA.

SMILES | IC50 (KRAS G12D/RAF1) | IC50 [1]
O=C1NC(=O)C2(CCCN(c3nc(OC[C@@]45CCCN4C[C@H](F)C5)nc4c3COC3(CCc5ccc(O)cc53)C4)C2)N1 (mixture of isomers) [Compound 30, 9-[6′-hydroxy-2-[[rac-(2R,8S)-2-fluoro-1,2,3,5,6,7-hexahydropyrrolizin-8-yl]methoxy]spiro[5,8-dihydropyrano[4,3-d]pyrimidine-7,1′-indane]-4-yl]-1,3,9-triazaspiro[4.5]decane-2,4-dione] | > 100 µM | 1000 to 20000 nM
C[C@@]1(O)CCCN(c2nc(OC[C@@]34CCCN3C[C@H](F)C4)nc3c2COC2(CCc4c(Cl)cccc42)C3)C1 (single isomer, unassigned) [Compound 23A, (3R)-1-[(7*)-4′-chloro-2-[[(2R,8S)-2-fluoro-1,2,3,5,6,7-hexahydropyrrolizin-8-yl]methoxy]spiro[5,8-dihydropyrano[4,3-d]pyrimidine-7,1′-indane]-4-yl]-3-methyl-piperidin-3-ol] | > 100 µM | 100 to 1000 nM
O=C1NC(=O)[C@]2(CCCN(c3nc(OC[C@@]45CCCN4C[C@H](F)C5)nc4c3COC3(CCCc5c(Cl)cc(O)cc53)C4)C2)N1 (single isomer, unassigned) [Compound 51B, (5R)-9-[(7*)-5′-chloro-2-[[(2R,8S)-2-fluoro-1,2,3,5,6,7-hexahydropyrrolizin-8-yl]methoxy]-7′-hydroxy-spiro[5,8-dihydropyrano[4,3-d]pyrimidine-7,1′-tetralin]-4-yl]-1,3,9-triazaspiro[4.5]decane-2,4-dione] | 10 to 100 µM | 10 to 100 nM
CN(C)C(=O)c1nn2c(c1Cl)CN(c1nc(OC[C@@]34CCCN3C[C@H](F)C4)nc3c1CN(C)[C@]1(CCCc4ccccc41)C3)CCC2 (single isomer, unassigned) [Compound 64B] | > 100 µM | 100 to 1000 nM
F[C@H]1CN2CCC[C@@]2(COc2nc3c(c(N4C[C@H]5CC[C@@H](C4)N5)n2)COC2(C3)c3ccccc3-c3n[nH]cc32)C1 (stereo partly drawn) [Compound 3, 4′-[(1R,5S)-3,8-diazabicyclo[3.2.1]octan-3-yl]-2′-[[(2R,8S)-2-fluoro-1,2,3,5,6,7-hexahydropyrrolizin-8-yl]methoxy]spiro[2H-indeno[1,2-c]pyrazole-4,7′-5,8-dihydropyrano[4,3-d]pyrimidine]] | > 100 µM | 1000 to 20000 nM
Nc1ccc2c(c1)C1(CCC2)Cc2nc(OC[C@@]34CCCN3C[C@H](F)C4)nc(N3CCCC(O)CC3)c2CO1 (stereo partly drawn) [Compound 13, 1-[7′-amino-2-[[(2R,8S)-2-fluoro-1,2,3,5,6,7-hexahydropyrrolizin-8-yl]methoxy]spiro[5,8-dihydropyrano[4,3-d]pyrimidine-7,1′-tetralin]-4-yl]azepan-4-ol] | 10 to 100 µM | 1000 to 20000 nM
N#CCC1CCCN(c2nc(OC[C@@]34CCCN3C[C@H](F)C4)nc3c2COC2(CCc4c(Cl)cccc42)C3)CC1 (stereo partly drawn) [Compound 19, 2-(1-(4-chloro-2′-(((2R,7aS)-2-fluorotetrahydro-1H-pyrrolizin-7a(5H)-yl)methoxy)-2,3,5′,8′-tetrahydrospiro[indene-1,7′-pyrano[4,3-d]pyrimidin]-4′-yl)azepan-4-yl)acetonitrile] | > 100 µM | 1000 to 20000 nM
N#Cc1ccc2c(c1)C1(CCC2)Cc2nc(OC[C@@]34CCCN3C[C@H](F)C4)nc(N3CCCCCC3)c2CO1 (stereo partly drawn) [Compound 20, 4-(azepan-1-yl)-2-[[(2R,8S)-2-fluoro-1,2,3,5,6,7-hexahydropyrrolizin-8-yl]methoxy]spiro[5,8-dihydropyrano[4,3-d]pyrimidine-7,4′-tetralin]-6′-carbonitrile] | > 100 µM | 1000 to 20000 nM
F[C@H]1CN2CCC[C@@]2(COc2nc3c(c(N4CCCCCC4)n2)COC2(COCc4ccccc42)C3)C1 (stereo partly drawn) [Compound 25, 4-(azepan-1-yl)-2-[[(2R,8S)-2-fluoro-1,2,3,5,6,7-hexahydropyrrolizin-8-yl]methoxy]spiro[5,8-dihydropyrano[4,3-d]pyrimidine-7,4′-isochromane]] | > 100 µM | 1000 to 20000 nM
CN(C)C(=O)c1cc2n(n1)CCCN(c1nc(OC[C@@]34CCCN3C[C@H](F)C4)nc3c1CO[C@]1(CCc4c(Cl)cccc41)C3)C2 [Compound 27A, 5-[(7S)-4′-chloro-2-[[(2R,8S)-2-fluoro-1,2,3,5,6,7-hexahydropyrrolizin-8-yl]methoxy]spiro[5,8-dihydropyrano[4,3-d]pyrimidine-7,1′-indane]-4-yl]-N,N-dimethyl-4,6,7,8-tetrahydropyrazolo[1,5-a][1,4]diazepine-2-carboxamide] | > 100 µM | 100 to 1000 nM
CONC(=O)c1cc2n(n1)CCCN(c1nc(OC[C@@]34CCCN3C[C@H](F)C4)nc3c1CO[C@@]1(CCc4c(Cl)cccc41)C3)C2 [Compound 31, N-methoxy-5-[(7S)-4′-chloro-2-[[(2R,8S)-2-fluoro-1,2,3,5,6,7-hexahydropyrrolizin-8-yl]methoxy]spiro[5,8-dihydropyrano[4,3-d]pyrimidine-7,1′-indane]-4-yl]-4,6,7,8-tetrahydropyrazolo[1,5-a][1,4]diazepine-2-carboxamide] | > 100 µM | 10 to 100 nM
CN(C)C(=O)c1cc2n(n1)CCCN(c1nc(OC[C@@]34CCCN3C[C@H](F)C4)nc3c1COC1(CCc4ccc(O)cc41)C3)C2 (stereo partly drawn) [Compound 32] | > 100 µM | 10 to 100 nM
